Key:
plasma proteins = test: LC/MSMS protein expression in plasma (COG0102); type: in vivo, human
Protocol: Plasma and CSF protein expression were measured by LC/MSMS in samples drawn prior to dosing (Day 0) and at end of dosing (Day 28) and were compared within each patient and between dosing groups.
(§1) This trial (ClinicalTrials.gov NCT02907567) was a randomized, double-blind, placebo-controlled clinical trial in mild to moderate Alzheimer's patients (MMSE 18-26) (See FIG. 1 for clinical trial design). The trial was conducted at six sites in Australia. Patients were randomized into placebo (n=5) or CT1812-treated groups: 90 mg (n=4), 280 mg (n=5) or 560 mg (n=5) and treated once daily for 28 days. Clinical chemistry was done at Sydpath (Sydney, AU). Pharmacokinetics were done at CPR Pharma Services (Adelaide, AU). Cerebrospinal fluid samples were taken at screening and day 21-28 of treatment and aliquoted. Plasma samples were taken at screening or Day 1 (one sample) and day 14-28, then spun down to separate plasma and aliquoted. One set of CSF samples was analyzed for Alzheimer's disease biomarkers; protein measurements (Aβ42, A1340, total tau, tau phosphorylated at threonine 181 (phosphorylated tau), NFL and neurogranin) were performed using commercially available ELISA assays from Fujirebio according to the manufacturer's instructions (INNOTEST β-AMYLOID(1-42), INNOTEST β-AMYLOID(1-40), INNOTEST hTau Ag, INNOTEST PHOSPHO-TAU(181P), Uman Diagnostics NFL assay). Neurogranin was measured with a sandwich ELISA method using antibodies Ng2 and Ng22 developed at the University of Gotteborg (Kvartsberg et al. 2015). Identical aliquots of CSF, and plasma were analyzed for protein expression changes via LC/MSMS at Caprion (see below).
Matched screening and day 28 plasma and CSF samples were analyzed by LC/MSMS at Caprion Biosciences Inc. Plasma was depleted of high and medium abundance proteins using a commercial immunoaffinity column, IgY14-Supermix (Sigma). CSF was depleted of only 14 high abundance proteins using MARS-14 (Agilent). All samples were digested with trypsin and plasma samples were fractionated by strong cation exchange chromatography (3 fractions). Both CSF and plasma samples were analyzed using a NanoAcquity UPLC coupled to a Q Exactive MS. […] The 12 most intense peaks per survey scan with charge states 2-8 fragmented and scanned with a mass range from 200 to 2000 m/z at a resolution of 17,500. Raw spectrometer data files for each LC-MS run were aligned independently using Elucidator software (Rosetta Biosoftware). The MS/MS spectra were matched to corresponding peptide sequences found in the Uniprot Human protein database (January 2017) using Mascot software, allowing for up to 2 missed cleavages, a peptide tolerance of 20 ppm, and an MS/MS tolerance of 0.05 Da. Outlier detection was performed by determining the average log-intensity of all isotope groups (IG) over injection order for all samples. Samples with an average value greater than 2 standard deviations from the mean were flagged for investigation. Following data transformation and normalization, expression analysis of the identified isotope groups was performed and the statistical significance of each comparison was assessed with a parametric, linear mixed model (LMM) and a non-parametric Wilcoxon ranked test (ranked p-values). Expression analysis was also performed at the peptide and protein levels, which used the same methodology as above, but applied to peptide/protein intensities, derived by rolling-up the corresponding isotope group intensities. Isotope groups not detected in at least half of the samples in either of the two groups being compared were not used for the roll-up.

[1] = COG0102 pharmacokinetics: plasma and CSF concentrations, estimated brain receptor occupancy; type: in vivo, human; conditions: 90-560 mg
Protocol: as §1, with “Plasma samples were taken at screening or Day 1 (one sample) and day 14-28, then spun down to separate plasma and aliquoted.” left out

[2] = plasma, treated group vs baseline

Q: What does the source list for `CC(C)(C)Oc1cc(CCC(C)(C)N2Cc3ccc(S(C)(=O)=O)cc3C2)ccc1O` [CT1812]?
A: Sema3F, % change treated vs placebo (plasma proteins; CSF & Plasma): 47%; Sema3F, With CT1812 (plasma proteins; CSF & Plasma, direction of change): significantly increased and ↑*; Sema3F, % change baseline treated (plasma proteins; CSF & Plasma, treated group vs baseline): 10%; ACOX1, % change treated vs placebo (plasma proteins; plasma): 42%; ANXA1, % change treated vs placebo (plasma proteins; plasma): −61%; ANXA2, % change treated vs placebo (plasma proteins; plasma): −54%; AZGP1, % change treated vs placebo (plasma proteins; plasma): 28%; B4GALT1, % change treated vs placebo (plasma proteins; plasma): 36%; C4BPA, % change treated vs placebo (plasma proteins; plasma): 44%; CFH, % change treated vs placebo (plasma proteins; plasma): 20%; Cathepsin S, % change treated vs placebo (plasma proteins; plasma): 58%; Clusterin, % change treated vs placebo (plasma proteins; plasma): 17%; FUT11, % change treated vs placebo (plasma proteins; plasma): 39%; GALT6, % change treated vs placebo (plasma proteins; plasma): 33%; GPR116, % change treated vs placebo (plasma proteins; plasma): 27%; GXYLT1, % change treated vs placebo (plasma proteins; plasma): 82%; HINT1, % change treated vs placebo (plasma proteins; plasma): −131%; HMGB1, % change treated vs placebo (plasma proteins; plasma): −315%; HRG, % change treated vs placebo (plasma proteins; plasma): 61%; Hex A, % change treated vs placebo (plasma proteins; plasma): 34%; Hex B, % change treated vs placebo (plasma proteins; plasma): 36%; LCAT, % change treated vs placebo (plasma proteins; plasma): 17%; NRP2, % change treated vs placebo (plasma proteins; plasma): 46%; Neprilysin, % change treated vs placebo (plasma proteins; plasma): 4717%; PCK2, % change treated vs placebo (plasma proteins; plasma): 74%; POMGNT1, % change treated vs placebo (plasma proteins; plasma): 41%; PRDX6, % change treated vs placebo (plasma proteins; plasma): −130%; SERPING1, % change treated vs placebo (plasma proteins; plasma): 24%; ST3GAL1, % change treated vs placebo (plasma proteins; plasma): 31%; SUMO3, % change treated vs placebo (plasma proteins; plasma): −77%; TRIM35, % change treated vs placebo (plasma proteins; plasma): 99%; TXN, % change treated vs placebo (plasma proteins; plasma): −98%; WDR81, % change treated vs placebo (plasma proteins; plasma): 142%; ACOX1, With CT1812 (plasma proteins; plasma, direction of change): ↑*; ANXA1, With CT1812 (plasma proteins; plasma, direction of change): significantly reduced and ↓*; ANXA2, With CT1812 (plasma proteins; plasma, direction of change): ↓*; AZGP1, With CT1812 (plasma proteins; plasma, direction of change): ↑*; B4GALT1, With CT1812 (plasma proteins; plasma, direction of change): ↑*; C4BPA, With CT1812 (plasma proteins; plasma, direction of change): significantly increased and ↑*; CFH, With CT1812 (plasma proteins; plasma, direction of change): ↑*; Cathepsin S, With CT1812 (plasma proteins; plasma, direction of change): significantly increase and ↑*; Clusterin, With CT1812 (plasma proteins; plasma, direction of change): increased and ↑; FUT11, With CT1812 (plasma proteins; plasma, direction of change): ↑*; GALT6, With CT1812 (plasma proteins; plasma, direction of change): ↑*; GPR116, With CT1812 (plasma proteins; plasma, direction of change): ↑; GXYLT1, With CT1812 (plasma proteins; plasma, direction of change): significantly increased and ↑*; HINT1, With CT1812 (plasma proteins; plasma, direction of change): significantly reduced and ↓*; HMGB1, With CT1812 (plasma proteins; plasma, direction of change): significantly reduced and ↓*; HRG, With CT1812 (plasma proteins; plasma, direction of change): significantly increased and ↑*; Hex A, With CT1812 (plasma proteins; plasma, direction of change): significantly increased and ↑*; Hex B, With CT1812 (plasma proteins; plasma, direction of change): significantly increased and ↑*; LCAT, With CT1812 (plasma proteins; plasma, direction of change): ↑; NRP2, With CT1812 (plasma proteins; plasma, direction of change): ↑*; Neprilysin, With CT1812 (plasma proteins; plasma, direction of change): ↑*; PCK2, With CT1812 (plasma proteins; plasma, direction of change): ↑; POMGNT1, With CT1812 (plasma proteins; plasma, direction of change): ↑*; PRDX6, With CT1812 (plasma proteins; plasma, direction of change): ↓*; SERPING1, With CT1812 (plasma proteins; plasma, direction of change): significantly increased and ↑*; ST3GAL1, With CT1812 (plasma proteins; plasma, direction of change): ↑*; SUMO3, With CT1812 (plasma proteins; plasma, direction of change): ↓*; TRIM35, With CT1812 (plasma proteins; plasma, direction of change): ↑*; TXN, With CT1812 (plasma proteins; plasma, direction of change): significantly reduced and ↓*; WDR81, With CT1812 (plasma proteins; plasma, direction of change): significantly increased and ↑*; GALT6, With CT1812 (plasma proteins; plasma, direction of change, listed as CT-1812): significantly increased; ACOX1, % change baseline treated (plasma proteins; [2]): 10%; ANXA1, % change baseline treated (plasma proteins; [2]): −18%; ANXA2, % change baseline treated (plasma proteins; [2]): −20%; AZGP1, % change baseline treated (plasma proteins; [2]): 5%; B4GALT1, % change baseline treated (plasma proteins; [2]): 16%; C4BPA, % change baseline treated (plasma proteins; [2]): 21%; CFH, % change baseline treated (plasma proteins; [2]): 6%; Cathepsin S, % change baseline treated (plasma proteins; [2]): 27%; Clusterin, % change baseline treated (plasma proteins; [2]): 4%; FUT11, % change baseline treated (plasma proteins; [2]): 18%; GALT6, % change baseline treated (plasma proteins; [2]): 15%; GPR116, % change baseline treated (plasma proteins; [2]): 9%; GXYLT1, % change baseline treated (plasma proteins; [2]): 38%; HINT1, % change baseline treated (plasma proteins; [2]): −43%; HMGB1, % change baseline treated (plasma proteins; [2]): −67%; HRG, % change baseline treated (plasma proteins; [2]): 10%; Hex A, % change baseline treated (plasma proteins; [2]): 13%; Hex B, % change baseline treated (plasma proteins; [2]): 19%; LCAT, % change baseline treated (plasma proteins; [2]): 6%; NRP2, % change baseline treated (plasma proteins; [2]): 10%; Neprilysin, % change baseline treated (plasma proteins; [2]): 48%; PCK2, % change baseline treated (plasma proteins; [2]): 76%; POMGNT1, % change baseline treated (plasma proteins; [2]): 14%; PRDX6, % change baseline treated (plasma proteins; [2]): −37%; SERPING1, % change baseline treated (plasma proteins; [2]): 4%; ST3GAL1, % change baseline treated (plasma proteins; [2]): 5%; SUMO3, % change baseline treated (plasma proteins; [2]): −35%; TRIM35, % change baseline treated (plasma proteins; [2]): 3%; TXN, % change baseline treated (plasma proteins; [2]): −33%; WDR81, % change baseline treated (plasma proteins; [2]): 33%; GALNT1, GALNT2, GALNT4, and GALNT5 expression (plasma proteins; with treatment): increase with treatment; plasma CT1812 concentration vs dose ([1]; day 28): increased approximately dose proportionally; CSF CT1812 concentration vs dose ([1]; days 22-30): dose dependent increase
